Laboratory results as given in patent US20180250328A1, “Metallocene-boronic acid-containing compounds and copolymers as antimicrobial agents” (University of South Carolina, priority 2017, published 2018).

Assays:
S. aureus = assay: disk-diffusion assay of penicillin-loaded polymers; assay type: cell-based; conditions: Staphylococcus aureus
Procedure: FIG. 8B is a 3-D plot of inhibition zones of penicillin, penicillin loaded cobaltocenium-containing polymers (PCo-Peni), and penicillin loaded cobaltocenium-boronic acid-containing copolymers (PCo-PPB-Peni) against six strains of bacteria using different amounts of penicillin (A: 5 μg penicillin-G alone, B: PCo-Peni with 5 μg penicillin-G, C: PCo-PPB-Peni with 5 μg penicillin-G, D: 10 μg penicillin-G, E: PCo-Peni with 10 μg penicillin-G, F: PCo-PPB-Peni with 10 μg penicillin-G).
For the bacteria, a single colony was inoculated in 30 mL tryptic soy broth (TSB) at 37° C. for 24 hours, shaking at 190 rpm/min. All bacteria were grown to an optical density of about 1.00 (OD600=1.00) for further use. To conduct the agar disk-diffusion assays, actively-growing cultures of each bacterial strain on mannitol salt agar (MSA) were inoculated on tryptic soy broth (TSB) agar plates. The bacterial growth culture (cell concentrations were 1.0×10^6 CFU/mL) was diluted from 10 μL to 1 mL in tryptic soy broth (TSB) and 100 μL was spread on TSB agar plates to form a bacterial lawn covering the plate surface. Then, 6 mm (diameter) filter discs were added to the plate surface, aqueous cobaltocenium-boronic acid-containing copolymers (PCo-PPB) at different concentrations were added to disks, and the plates were incubated at 28° C. for 18 h. […]

[1] = system: six strains of bacteria (S. aureus, E. faecalis, E. coli, P. vulgaris, P. aeruginosa and K. pneumoniae); assay: LIVE/DEAD bacteria viability assay by CSLM; assay type: cell-based; conditions: 18-hour incubation at 37° C.; penicillin-G 5, PCo-PPB 11 μg, PCo-PPB-Peni 16 μg per 1 mL
Procedure: One (1) mL of active bacterial stock of various strains was introduced to 5 penicillin-G, 11 μg cobaltocenium-boronic acid-containing copolymer, and 16 μg penicillin-loaded cobaltocenium-boronic acid-containing copolymers (penicillin-G weight: 5 m), respectively. An untreated cell suspension was used as the control. Following 18-hour incubation at 37° C., 1 μL LIVE/DEAD BacLight (Bacterial Viability Kit; INVITROGEN INC.®) was added to the incubation solution. After incubation for 15 minutes, cells were imaged using a LEICA TCS SP5® Laser Scanning Confocal Microscope with a 63X oil immersion lens.

In the case of `CC1(C)S[C@@H]2[C@H](NC(=O)Cc3ccccc3)C(=O)N2[C@H]1C(=O)O` [penicillin-G], the zone of inhibition at 5 µg/disc (S. aureus; 5 μg penicillin-G) is reported as 7 mm, the zone of inhibition at 10 µg/disc (S. aureus; 10 μg penicillin-G) is reported as 14.5 mm and the “killing of bacteria (LIVE/DEAD BacLight)” value [1] is reported as “not effective at killing bacteria”.
